From patent publication US12723063B2, “GIPR-agonist compounds” (Eli Lilly and Company, priority 2019, dated 2026)
*1 amine or outer side, *2 acyl side, *3 side chain or, on linkers, in order; H or OH if unused. Where a SMILES comes first, the peptide text is derived from it. Side-chain parts run from the residue outwards. [ ]: non-standard residue; d: D form. The star is where a group is joined. C20 diacid = O=C(O)CCCCCCCCCCCCCCCCCCC(=O)*; C18 diacid = O=C(O)CCCCCCCCCCCCCCCCC(=O)*; αMePhe(2-F) = C[C@](N)(Cc1ccccc1F)C(=O)O; γGlu = O=C(O)[C@H](CCC(=O)[*:2])N[*:1]; αMeF = C[C@](N)(Cc1ccccc1)C(=O)O; 4Pal = N[C@@H](Cc1ccncc1)C(=O)O; AEEA = NCCOCCOCC(=O)O; Aib = CC(C)(N)C(=O)O

How the values were obtained:
[1] = target: T1, human glucagon receptor (GcgR) (Homo sapiens, UniProt P47871); experiment: cAMP functional assay (HTRF) in HEK293 cells in presence of 0.1% casein; format: cell-based; conditions: HEK293 cells expressing human GcgR, geometric mean, read-out: hGcgR cAMP Rel EC50 nM (SEM, n)
T1 construct: expressed in transfected cells; host or cells: HEK293
T1 sequence (P47871 26-477): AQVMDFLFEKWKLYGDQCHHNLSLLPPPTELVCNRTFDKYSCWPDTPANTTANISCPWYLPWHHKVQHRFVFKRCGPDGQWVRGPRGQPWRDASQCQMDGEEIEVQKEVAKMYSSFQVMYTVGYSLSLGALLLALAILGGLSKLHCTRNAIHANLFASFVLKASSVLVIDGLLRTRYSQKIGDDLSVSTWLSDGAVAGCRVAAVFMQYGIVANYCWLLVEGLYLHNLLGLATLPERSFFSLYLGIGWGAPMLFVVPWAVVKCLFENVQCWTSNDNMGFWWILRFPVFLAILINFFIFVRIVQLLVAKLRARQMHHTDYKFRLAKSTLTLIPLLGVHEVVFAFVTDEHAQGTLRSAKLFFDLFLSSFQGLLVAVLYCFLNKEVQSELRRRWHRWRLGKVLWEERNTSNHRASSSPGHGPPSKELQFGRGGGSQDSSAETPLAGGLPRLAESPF

[2] = target: T2, human glucose-dependent insulinotropic peptide receptor (GIPR) (Homo sapiens, UniProt P48546); experiment: as above; format: cell-based; conditions: HEK293 cells expressing human GIPR, geometric mean, read-out: hGIPR cAMP Rel EC50 nM (SEM, n)
T2 construct: expressed in transfected cells; host or cells: HEK293
T2 sequence (P48546 22-466): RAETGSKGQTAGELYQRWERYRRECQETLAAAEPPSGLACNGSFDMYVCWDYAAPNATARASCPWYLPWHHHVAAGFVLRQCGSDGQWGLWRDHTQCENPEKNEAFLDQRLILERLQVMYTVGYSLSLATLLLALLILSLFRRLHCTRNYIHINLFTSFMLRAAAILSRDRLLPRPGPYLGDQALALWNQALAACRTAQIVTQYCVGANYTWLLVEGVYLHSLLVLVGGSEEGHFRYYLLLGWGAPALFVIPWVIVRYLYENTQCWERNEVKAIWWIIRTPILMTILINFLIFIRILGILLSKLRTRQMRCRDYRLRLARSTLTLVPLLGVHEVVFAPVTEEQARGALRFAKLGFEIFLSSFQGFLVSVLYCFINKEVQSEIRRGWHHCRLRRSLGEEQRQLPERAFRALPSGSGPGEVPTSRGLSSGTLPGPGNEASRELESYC

Structure (SMILES) | EC50 [1] | EC50 [2]
CC[C@H](C)[C@H](NC(=O)[C@H](CO)NC(=O)[C@H](Cc1ccc(O)cc1)NC(=O)[C@H](CC(=O)O)NC(=O)[C@H](CO)NC(=O)[C@@H](NC(=O)[C@](C)(Cc1ccccc1)NC(=O)[C@@H](NC(=O)CNC(=O)[C@H](CCC(=O)O)NC(=O)C(C)(C)NC(=O)[C@@H](N)Cc1ccc(O)cc1)[C@@H](C)O)[C@@H](C)CC)C(=O)N[C@@H](C)C(=O)N[C@@H](CC(C)C)C(=O)N[C@@H](CC(=O)O)C(=O)N[C@@H](CCCCN)C(=O)N[C@@H](CCCCNC(=O)COCCOCCNC(=O)COCCOCCNC(=O)CC[C@H](NC(=O)CCCCCCCCCCCCCCCCC(=O)O)C(=O)O)C(=O)N[C@@H](Cc1c[nH]cn1)C(=O)N[C@@H](CCC(N)=O)C(=O)NC(C)(C)C(=O)N[C@@H](CC(=O)O)C(=O)N[C@@H](Cc1ccccc1)C(=O)N[C@H](C(=O)N[C@@H](CCC(=O)O)C(=O)N[C@@H](Cc1ccncc1)C(=O)N[C@@H](CC(C)C)C(=O)N[C@@H](CC(C)C)C(=O)N[C@@H](C)C(=O)NCC(=O)NCC(=O)N1CCC[C@H]1C(=O)N[C@@H](CO)C(=O)N[C@@H](CO)C(=O)NCC(=O)N[C@@H](C)C(=O)N1CCC[C@H]1C(=O)N1CCC[C@H]1C(=O)N1CCC[C@H]1C(=O)N[C@@H](CO)C(N)=O)C(C)C [Example 23] (H-Y[Aib]EGT[αMeF]ISDYSIALDKK([AEEA-AEEA-γGlu-C18 diacid])HQ[Aib]DFVE[4Pal]LLAGGPSSGAPPPS-NH2) | > 5000 nM | 0.0192 nM
CC[C@H](C)[C@H](NC(=O)[C@H](Cc1ccccc1)NC(=O)[C@@H](NC(=O)CNC(=O)[C@H](CCC(=O)O)NC(=O)C(C)(C)NC(=O)[C@@H](N)Cc1ccc(O)cc1)[C@@H](C)O)C(=O)N[C@@H](CO)C(=O)N[C@@H](CC(=O)O)C(=O)N[C@@H](Cc1ccc(O)cc1)C(=O)N[C@@H](CO)C(=O)N[C@H](C(=O)NC(C)(C)C(=O)N[C@@H](CC(C)C)C(=O)N[C@@H](CC(=O)O)C(=O)N[C@@H](CCCCN)C(=O)N[C@@H](CCCCNC(=O)COCCOCCNC(=O)COCCOCCNC(=O)CC[C@H](NC(=O)CCCCCCCCCCCCCCCCC(=O)O)C(=O)O)C(=O)N[C@@H](Cc1c[nH]cn1)C(=O)N[C@@H](CCC(N)=O)C(=O)NC(C)(C)C(=O)N[C@@H](CC(=O)O)C(=O)N[C@@H](Cc1ccccc1)C(=O)N[C@H](C(=O)N[C@@H](CCC(=O)O)C(=O)N[C@@H](Cc1ccncc1)C(=O)N[C@@H](CC(C)C)C(=O)N[C@@H](CC(C)C)C(=O)N[C@@H](C)C(=O)NCC(=O)NCC(=O)N1CCC[C@H]1C(=O)N[C@@H](CO)C(=O)N[C@@H](CO)C(=O)NCC(=O)N[C@@H](C)C(=O)N1CCC[C@H]1C(=O)N1CCC[C@H]1C(=O)N1CCC[C@H]1C(=O)N[C@@H](CO)C(N)=O)C(C)C)[C@@H](C)CC [Example 24] | > 5000 nM | 0.0699 nM
CC[C@H](C)[C@H](NC(=O)[C@H](CO)NC(=O)[C@H](Cc1ccc(O)cc1)NC(=O)[C@H](CC(=O)O)NC(=O)[C@H](CO)NC(=O)[C@@H](NC(=O)[C@](C)(Cc1ccccc1)NC(=O)[C@@H](NC(=O)CNC(=O)[C@H](CCC(=O)O)NC(=O)C(C)(C)NC(=O)[C@@H](N)Cc1ccc(O)cc1)[C@@H](C)O)[C@@H](C)CC)C(=O)N[C@@H](C)C(=O)N[C@@H](CC(C)C)C(=O)N[C@@H](CC(=O)O)C(=O)N[C@@H](CCCCN)C(=O)N[C@@H](CCCCNC(=O)COCCOCCNC(=O)COCCOCCNC(=O)CC[C@H](NC(=O)CCCCCCCCCCCCCCCCCCC(=O)O)C(=O)O)C(=O)N[C@@H](Cc1c[nH]cn1)C(=O)N[C@@H](CCC(N)=O)C(=O)NC(C)(C)C(=O)N[C@@H](CCC(=O)O)C(=O)N[C@@H](Cc1ccccc1)C(=O)N[C@H](C(=O)N[C@@H](CC(N)=O)C(=O)N[C@@H](Cc1c[nH]c2ccccc12)C(=O)N[C@@H](CC(C)C)C(=O)N[C@@H](CC(C)C)C(=O)N[C@@H](C)C(=O)NCC(=O)NCC(=O)N1CCC[C@H]1C(=O)N[C@@H](CO)C(=O)N[C@@H](CO)C(=O)NCC(=O)N[C@@H](C)C(=O)N1CCC[C@H]1C(=O)N1CCC[C@H]1C(=O)N1CCC[C@H]1C(=O)N[C@@H](CO)C(N)=O)C(C)C [Example 25] (H-Y[Aib]EGT[αMeF]ISDYSIALDKK([AEEA-AEEA-γGlu-C20 diacid])HQ[Aib]EFVNWLLAGGPSSGAPPPS-NH2) | > 5000 nM | 0.0155 nM
CC[C@H](C)[C@H](NC(=O)[C@H](CO)NC(=O)[C@H](Cc1ccc(O)cc1)NC(=O)[C@H](CC(=O)O)NC(=O)[C@H](CO)NC(=O)[C@@H](NC(=O)[C@](C)(Cc1ccccc1F)NC(=O)[C@@H](NC(=O)CNC(=O)[C@H](CCC(=O)O)NC(=O)C(C)(C)NC(=O)[C@@H](N)Cc1ccc(O)cc1)[C@@H](C)O)[C@@H](C)CC)C(=O)N[C@@H](C)C(=O)N[C@@H](CC(C)C)C(=O)N[C@@H](CC(=O)O)C(=O)N[C@@H](CCCCN)C(=O)N[C@@H](CCCCNC(=O)COCCOCCNC(=O)COCCOCCNC(=O)CC[C@H](NC(=O)CCCCCCCCCCCCCCCCCCC(=O)O)C(=O)O)C(=O)N[C@@H](Cc1c[nH]cn1)C(=O)N[C@@H](CCC(N)=O)C(=O)NC(C)(C)C(=O)N[C@@H](CCC(=O)O)C(=O)N[C@@H](Cc1ccccc1)C(=O)N[C@H](C(=O)N[C@@H](CC(N)=O)C(=O)N[C@@H](Cc1c[nH]c2ccccc12)C(=O)N[C@@H](CC(C)C)C(=O)N[C@@H](CC(C)C)C(=O)N[C@@H](C)C(=O)NCC(=O)NCC(=O)N1CCC[C@H]1C(=O)N[C@@H](CO)C(=O)N[C@@H](CO)C(=O)NCC(=O)N[C@@H](C)C(=O)N1CCC[C@H]1C(=O)N1CCC[C@H]1C(=O)N1CCC[C@H]1C(=O)N[C@@H](CO)C(N)=O)C(C)C [Example 26] (H-Y[Aib]EGT[αMePhe(2-F)]ISDYSIALDKK([AEEA-AEEA-γGlu-C20 diacid])HQ[Aib]EFVNWLLAGGPSSGAPPPS-NH2) | > 5000 nM | 0.00991 nM
CC[C@H](C)[C@H](NC(=O)[C@H](CO)NC(=O)[C@H](Cc1ccc(O)cc1)NC(=O)[C@H](CC(=O)O)NC(=O)[C@H](CO)NC(=O)[C@@H](NC(=O)[C@H](Cc1ccccc1)NC(=O)[C@@H](NC(=O)CNC(=O)[C@H](CCC(=O)O)NC(=O)[C@@H](C)NC(=O)[C@@H](N)Cc1ccc(O)cc1)[C@@H](C)O)[C@@H](C)CC)C(=O)N[C@@H](CC(C)C)C(=O)N[C@@H](CC(C)C)C(=O)N[C@@H](CC(=O)O)C(=O)N[C@@H](CCCCN)C(=O)N[C@@H](CCCCNC(=O)COCCOCCNC(=O)COCCOCCNC(=O)CC[C@H](NC(=O)CCCCCCCCCCCCCCCCC(=O)O)C(=O)O)C(=O)N[C@@H](C)C(=O)N[C@@H](CCC(N)=O)C(=O)NC(C)(C)C(=O)N[C@@H](CCC(=O)O)C(=O)N[C@@H](Cc1ccccc1)C(=O)N[C@H](C(=O)N[C@@H](CCC(N)=O)C(=O)N[C@@H](Cc1c[nH]c2ccccc12)C(=O)N[C@@H](CC(C)C)C(=O)N[C@@H](CC(C)C)C(=O)N[C@@H](C)C(=O)NCC(=O)NCC(=O)N1CCC[C@H]1C(=O)N[C@@H](CO)C(=O)N[C@@H](CO)C(=O)NCC(=O)N[C@@H](C)C(=O)N1CCC[C@H]1C(=O)N1CCC[C@H]1C(=O)N1CCC[C@H]1C(=O)N[C@@H](CO)C(N)=O)C(C)C [Example 27] (H-Y[dA]EGTFISDYSILLDKK([AEEA-AEEA-γGlu-C18 diacid])AQ[Aib]EFVQWLLAGGPSSGAPPPS-NH2) | > 5000 nM | 0.0132 nM
CC[C@H](C)[C@H](NC(=O)[C@H](CO)NC(=O)[C@H](Cc1ccc(O)cc1)NC(=O)[C@H](CC(=O)O)NC(=O)[C@H](CO)NC(=O)[C@@H](NC(=O)[C@H](Cc1ccccc1)NC(=O)[C@@H](NC(=O)CNC(=O)[C@H](CCC(=O)O)NC(=O)[C@@H](C)NC(=O)[C@@H](N)Cc1ccc(O)cc1)[C@@H](C)O)[C@@H](C)CC)C(=O)N[C@@H](CC(C)C)C(=O)N[C@@H](CC(C)C)C(=O)N[C@@H](CC(=O)O)C(=O)N[C@@H](CCCCN)C(=O)N[C@@H](CCCCNC(=O)COCCOCCNC(=O)COCCOCCNC(=O)CC[C@H](NC(=O)CCCCCCCCCCCCCCCCC(=O)O)C(=O)O)C(=O)N[C@@H](C)C(=O)N[C@@H](CCC(N)=O)C(=O)NC(C)(C)C(=O)N[C@@H](CCC(=O)O)C(=O)N[C@@H](Cc1ccccc1)C(=O)N[C@H](C(=O)N[C@@H](CC(N)=O)C(=O)N[C@@H](Cc1c[nH]c2ccccc12)C(=O)N[C@@H](CC(C)C)C(=O)N[C@@H](CC(C)C)C(=O)N[C@@H](CCC(=O)O)C(=O)NCC(=O)NCC(=O)N1CCC[C@H]1C(=O)N[C@@H](CO)C(=O)N[C@@H](CO)C(=O)NCC(=O)N[C@@H](C)C(=O)N1CCC[C@H]1C(=O)N1CCC[C@H]1C(=O)N1CCC[C@H]1C(=O)N[C@@H](CO)C(N)=O)C(C)C [Example 28] (H-Y[dA]EGTFISDYSILLDKK([AEEA-AEEA-γGlu-C18 diacid])AQ[Aib]EFVNWLLEGGPSSGAPPPS-NH2) | > 5000 nM | 0.0118 nM
